Legend:
IKKε = target: T1, IKKε (Homo sapiens, UniProt Q14164); experiment: IKKε biochemical assay; details: 10 point 1:4 dose response, 30 uM top concentration, 90 min at 25° C., LabChip EZ Reader II; read-out: IKKε_IC50
T1 sequence (Q14164 1-716): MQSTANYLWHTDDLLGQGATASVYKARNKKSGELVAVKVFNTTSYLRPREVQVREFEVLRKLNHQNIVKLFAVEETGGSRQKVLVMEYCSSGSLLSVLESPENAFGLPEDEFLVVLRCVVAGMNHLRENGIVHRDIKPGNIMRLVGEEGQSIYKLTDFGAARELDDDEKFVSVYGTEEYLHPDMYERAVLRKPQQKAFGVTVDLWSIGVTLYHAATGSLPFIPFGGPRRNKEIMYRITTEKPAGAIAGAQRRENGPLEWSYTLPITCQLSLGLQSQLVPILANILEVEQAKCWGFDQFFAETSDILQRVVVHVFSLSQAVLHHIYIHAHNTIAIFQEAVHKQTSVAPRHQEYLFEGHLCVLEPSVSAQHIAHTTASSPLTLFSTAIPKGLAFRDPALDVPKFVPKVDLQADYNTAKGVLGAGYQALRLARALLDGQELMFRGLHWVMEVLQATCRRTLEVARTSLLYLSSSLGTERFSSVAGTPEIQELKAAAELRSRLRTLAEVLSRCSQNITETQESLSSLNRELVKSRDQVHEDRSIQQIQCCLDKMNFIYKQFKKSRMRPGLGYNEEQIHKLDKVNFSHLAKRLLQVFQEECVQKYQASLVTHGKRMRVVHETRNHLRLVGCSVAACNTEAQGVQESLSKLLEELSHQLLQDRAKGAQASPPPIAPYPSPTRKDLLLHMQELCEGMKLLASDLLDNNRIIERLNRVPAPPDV
Method: (§1) Test compounds were transferred into Labcyte polypropylene 384 well plates (P055-25) and diluted to 3 mM using DMSO. […] 100 uM of a reference compound (1 uM final high concentration). Backfilling was performed if necessary so that all wells contain 1% DMSO final:
(§2) add 75 nl DMSO/well into columns 1, 2 and 24 using Labcyte Echo. add 75 nl 1.0 mM staurosporine/well into column 23 using Labcyte Echo (10 uM final) add 4.5 ul enzyme/well using multidrop dispenser add 3 ul substrate/well using multidrop dispenser incubate at 25° C. for 90 min. add 7.5 ul 2× stop buffer read on labchip ez reader II using IKKε.
(§3) Raw data files were opened in the Caliper LabChip Reviewer program (Version 3.0.265.0 SP2) and peak assignments were adjusted to reflect “substrate first” with the software's post-run analysis options. A spline-fit baseline was applied using the software's analysis algorithm.

TBK1 = target: T2, TBK1 (Homo sapiens, UniProt Q9UHD2); experiment: TBK biochemical assay; details: 10 point 1:4 dose response, 30 uM top concentration, 90 min at 25° C., LabChip EZ Reader II; read-out: TBK1_IC50
T2 sequence (Q9UHD2 1-729): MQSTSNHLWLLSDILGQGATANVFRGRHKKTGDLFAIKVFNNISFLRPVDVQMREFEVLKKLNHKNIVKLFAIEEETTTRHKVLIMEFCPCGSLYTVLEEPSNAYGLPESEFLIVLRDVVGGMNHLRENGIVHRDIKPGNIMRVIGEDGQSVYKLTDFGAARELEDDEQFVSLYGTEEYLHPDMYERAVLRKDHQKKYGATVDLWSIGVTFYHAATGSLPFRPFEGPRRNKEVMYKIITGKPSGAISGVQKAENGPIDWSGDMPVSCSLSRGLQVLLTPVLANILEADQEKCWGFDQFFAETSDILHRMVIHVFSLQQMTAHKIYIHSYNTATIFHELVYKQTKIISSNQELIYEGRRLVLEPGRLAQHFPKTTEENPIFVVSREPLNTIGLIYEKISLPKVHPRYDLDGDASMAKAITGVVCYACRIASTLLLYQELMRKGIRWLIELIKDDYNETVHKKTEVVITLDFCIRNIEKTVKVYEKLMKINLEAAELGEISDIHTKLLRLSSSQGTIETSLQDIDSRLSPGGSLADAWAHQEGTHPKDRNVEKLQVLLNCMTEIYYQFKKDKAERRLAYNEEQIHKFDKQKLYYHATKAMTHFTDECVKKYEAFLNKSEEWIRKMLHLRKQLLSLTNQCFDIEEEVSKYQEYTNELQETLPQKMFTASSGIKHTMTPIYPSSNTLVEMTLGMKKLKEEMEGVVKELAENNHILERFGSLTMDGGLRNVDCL
Method: as §1
as §2, with “C. in Heidolph incubator” for “C.”, “buffer using multidrop dispenser” for “buffer”, “TBK1.job” for “IKKε.”
as §3

Structure (SMILES): COc1nc(Nc2nccc(-c3ccc(OC4CCOCC4)c(C#N)c3)n2)ccc1C(=O)N1CC2COCC2C1 (stereo not shown) [Example 12, 5-(2-[[5-([hexahydro-1H-furo[3,4-c]pyrol-5-yl]carbonyl)-6-methoxypyridin-2-yl]amino]pyrimidin-4-yl)-2-(oxan-4-yloxy)benzonitrile]
- IC50 (IKKε): < 100 nM
- IC50 (TBK1): < 100 nM

Structure (SMILES): COc1nc(Nc2nccc(-c3ccc(OC4CCOCC4)c(C#N)c3)n2)ccc1C(=O)N1CCC(C(=O)O)CC1 [Example 13]
- IC50 (IKKε): < 100 nM
- IC50 (TBK1): < 100 nM

Structure (SMILES): COc1nc(Nc2nccc(-c3ccc(OC4CCOCC4)c(C#N)c3)n2)ccc1C(=O)NC1CCN(C)CC1 [Example 14, 6-([4-[3-cyano-4-(oxan-4-yloxy)phenyl]pyrimidin-2-yl]amino)-2-methoxy-N-(1-methylpiperidin-4-yl)pyridine-3-carboxamide]
- IC50 (IKKε): < 100 nM
- IC50 (TBK1): < 100 nM

Structure (SMILES): COc1nc(Nc2nccc(-c3ccc(OC4CCOCC4)c(C#N)c3)n2)ccc1C(=O)N1CCN(CCO)CC1 [Example 15, 5-(2-{5-[4-(2-Hydroxy-ethyl)-piperazine-1-carbonyl]-6-methoxy-pyridin-2-ylamino}-pyrimidin-4-yl)-2-(tetrahydro-pyran-4-yloxy)-benzonitrile]
- IC50 (IKKε): < 100 nM
- IC50 (TBK1): < 100 nM

Structure (SMILES): COc1nc(Nc2nccc(-c3ccc(OC4CCOCC4)c(C#N)c3)n2)ccc1C(=O)N1C2CCCC1COC2 [Example 16, 5-(2-[[6-methoxy-5-([3-oxa-9-azabicyclo[3.3.1]nonan-9-yl]carbonyl)pyridin-2-yl]amino]pyrimidin-4-yl)-2-(oxan-4-yloxy)benzonitrile]
- IC50 (IKKε): < 100 nM
- IC50 (TBK1): < 100 nM

Structure (SMILES): COc1nc(Nc2nccc(-c3ccc(OC4CCOCC4)c(C#N)c3)n2)ccc1C(=O)N1C2COCC1CC(O)C2 (stereo not shown) [Example 17, 5-(2-[[5-([7-hydroxy-3-oxa-9-azabicyclo[3.3.1]nonan-9-yl]carbonyl)-6-methoxypyridin-2-yl]amino]pyrimidin-4-yl)-2-(oxan-4-yloxy)benzonitrile]
- IC50 (IKKε): < 100 nM
- IC50 (TBK1): < 100 nM

Structure (SMILES): COc1nc(Nc2nccc(-c3ccc(OC4CCOCC4)c(C#N)c3)n2)ccc1C(=O)N1CC2CCC1CN2C (stereo not shown) [Example 18, 5-(2-[[6-methoxy-5-([5-methyl-2,5-diazabicyclo[2.2.2]octan-2-yl]carbonyl)pyridin-2-yl]amino]pyrimidin-4-yl)-2-(oxan-4-yloxy)benzonitrile]
- IC50 (IKKε): < 100 nM
- IC50 (TBK1): < 100 nM

Structure (SMILES): COc1nc(Nc2nccc(-c3ccc(OC4CCOCC4)c(C#N)c3)n2)ccc1C(=O)N[C@H]1[C@@H]2C[C@H]1CN(C)C2 [Example 19, 6-([4-[3-cyano-4-(oxan-4-yloxy)phenyl]pyrimidin-2-yl]amino)-2-methoxy-N-[(1R,5S,6R)-3-methyl-3-azabicyclo[3.1.1]heptan-6-yl]pyridine-3-carboxamide]
- IC50 (IKKε): < 100 nM
- IC50 (TBK1): < 100 nM

Structure (SMILES): COc1nc(Nc2nccc(-c3ccc(OC4CCOCC4)c(C#N)c3)n2)ccc1C(=O)N[C@@H]1[C@@H]2C[C@H]1CN(C)C2 [Example 20, 6-([4-[3-cyano-4-(oxan-4-yloxy)phenyl]pyrimidin-2-yl]amino)-2-methoxy-N-[(1R,5S,6S)-3-methyl-3-azabicyclo[3.1.1]heptan-6-yl]pyridine-3-carboxamide]
- IC50 (IKKε): < 100 nM
- IC50 (TBK1): < 100 nM

Structure (SMILES): COc1nc(Nc2nccc(-c3ccc(OC4CCOCC4)c(C#N)c3)n2)ccc1C(=O)NC1CN2CCC1CC2 (stereo not shown) [Example 21, 6-((4-(3-cyano-4-((tetrahydro-2H-pyran-4-yl)oxy)phenyl)pyrimidin-2-yl)amino)-2-methoxy-N-(quinuclidin-3-yl)nicotinamide]
- IC50 (IKKε): < 100 nM
- IC50 (TBK1): < 100 nM

Structure (SMILES): CN(C)C(=O)c1ccc(Nc2nccc(-c3ccc(OC4CCOCC4)c(C#N)c3)n2)nc1 [Example 22, 6-([4-[3-cyano-4-(oxan-4-yloxy)phenyl]pyrimidin-2-yl]amino)-N,N-dimethylpyridine-3-carboxamide]
- IC50 (IKKε): 100 to 1000 nM
- IC50 (TBK1): 100 to 1000 nM

Structure (SMILES): CN(C)C(=O)c1ccc(Nc2nccc(-c3ccc(OC4CCOCC4)c(C#N)c3)n2)cn1 [Example 23, 5-([4-[3-cyano-4-(oxan-4-yloxy)phenyl]pyrimidin-2-yl]amino)-N,N-dimethylpyridine-2-carboxamide]
- IC50 (IKKε): < 100 nM
- IC50 (TBK1): < 100 nM

Structure (SMILES): COc1cc(Nc2nccc(-c3ccc(OC4CCOCC4)c(C#N)n3)n2)ncc1C(=O)N(C)C [Example 24, 6-([4-[6-cyano-5-(oxan-4-yloxy)pyridin-2-yl]pyrimidin-2-yl]amino)-4-methoxy-N,N-dimethylpyridine-3-carboxamide]
- IC50 (IKKε): 100 to 1000 nM
- IC50 (TBK1): 100 to 1000 nM

Structure (SMILES): COc1cc(Nc2nccc(-c3ccc(OC4CCOCC4)c(C#N)n3)n2)cnc1C(=O)N(C)C [Example 25, 5-([4-[6-cyano-5-(oxan-4-yloxy)pyridin-2-yl]pyrimidin-2-yl]amino)-3-methoxy-N,N-dimethylpyridine-2-carboxamide]
- IC50 (IKKε): < 100 nM
- IC50 (TBK1): < 100 nM

Structure (SMILES): COc1nc(Nc2nccc(-c3ccc(OC4CCOCC4)c(C#N)n3)n2)ccc1C(=O)N(C)C [Example 26, 6-([4-[6-cyano-5-(oxan-4-yloxy)pyridin-2-yl]pyrimidin-2-yl]amino)-2-methoxy-N,N-dimethylpyridine-3-carboxamide]
- IC50 (IKKε): < 100 nM
- IC50 (TBK1): < 100 nM

Structure (SMILES): CN(C)C(=O)c1ccc(Nc2nccc(-c3ccc(OC4CCOCC4)c(C#N)n3)n2)nc1 [Example 27, 6-([4-[6-cyano-5-(oxan-4-yloxy)pyridin-2-yl]pyrimidin-2-yl]amino)-N,N-dimethylpyridine-3-carboxamide]
- IC50 (IKKε): 100 to 1000 nM
- IC50 (TBK1): 100 to 1000 nM

Structure (SMILES): CN(C)C(=O)c1ccc(Nc2nccc(-c3ccc(OC4CCOCC4)c(C#N)n3)n2)cn1 [Example 28, 5-([4-[6-cyano-5-(oxan-4-yloxy)pyridin-2-yl]pyrimidin-2-yl]amino)-N,N-dimethylpyridine-2-carboxamide]
- IC50 (IKKε): < 100 nM
- IC50 (TBK1): < 100 nM

Structure (SMILES): COc1nc(Nc2nccc(-c3ccc(OC4CCOCC4)c(C#N)n3)n2)ccc1C(=O)NC1CN2CCC1CC2 (stereo not shown) [Example 29, N-[1-azabicyclo[2.2.2]octan-3-yl]-6-([4-[6-cyano-5-(oxan-4-yloxy)pyridin-2-yl]pyrimidin-2-yl]amino)-2-methoxypyridine-3-carboxamide]
- IC50 (IKKε): < 100 nM
- IC50 (TBK1): < 100 nM

Structure (SMILES): COc1nc(Nc2nccc(-c3ccc(OC4CCOCC4)c(C#N)n3)n2)ccc1C(=O)N1CCCCC1 [Example 30, 6-[2-([6-methoxy-5-[(piperidin-1-yl)carbonyl]pyridin-2-yl]amino)pyrimidin-4-yl]-3-(oxan-4-yloxy)pyridine-2-carbonitrile]
- IC50 (IKKε): < 100 nM
- IC50 (TBK1): < 100 nM

Structure (SMILES): COc1nc(Nc2nccc(-c3ccc(OC4CCOCC4)c(C#N)n3)n2)ccc1C(=O)N1CCN(C)CC1 [Example 31, 6-[2-([6-methoxy-5-[(4-methylpiperazin-1-yl)carbonyl]pyridin-2-yl]amino)pyrimidin-4-yl]-3-(oxan-4-yloxy)pyridine-2-carbonitrile]
- IC50 (IKKε): < 100 nM
- IC50 (TBK1): < 100 nM

Source: US20230019491A1, “PYRIMIDINE TBK/IKKe INHIBITOR COMPOUNDS AND USES THEREOF” (Merck Patent GmbH, priority 2017, published 2023)
